Reference: patent US20160038468A1 (priority 2013, published 2016)
Like-named read-outs stand apart in the source and are kept apart here.

Key:
Assay type in all cases: cell-based
Gardnerella vaginalis = assay: Agar dilution MIC (CLSI), Gardnerella vaginalis vaginal isolates; conditions: for Number of strains with indicated MIC: 100 samples
Atopobium vaginae = assay: Agar dilution MIC (CLSI), Atopobium vaginae vaginal isolates; conditions: for Number of strains with indicated MIC: 62 samples
Mobiluncus all species = assay: Agar dilution MIC (CLSI), Mobiluncus all species; conditions: # tested 40
Prevotella timonensis = assay: Agar dilution MIC (CLSI), Prevotella timonensis vaginal isolates; conditions: for MIC: read-out: Minimal Inhibitory Concentration (MIC); for Number of strains with indicated MIC: 33 samples
Peptoniphilus harei = assay: Agar dilution MIC (CLSI), Peptoniphilus harei vaginal isolates; conditions: for MIC: read-out: Minimal Inhibitory Concentration (MIC)
Peptoniphilus lacrimalis = assay: Agar dilution MIC (CLSI), Peptoniphilus lacrimalis vaginal isolates; conditions: for Number of strains with indicated MIC: 20 samples; for MIC: read-out: Minimal Inhibitory Concentration (MIC)
[1] = Gardnerella vaginalis, # tested 107
[2] = Fannyhessea vaginae, # tested 62
[3] = Hoylesella timonensis, # tested 33
[4] = Peptoniphilus harei, # tested 23
[5] = Peptoniphilus lacrimalis, # tested 20

CCC[C@@H]1C[C@@H](C(=O)N[C@@H]([C@H]2O[C@H](SC)[C@H](O)[C@@H](O)[C@H]2O)[C@H](C)Cl)N(C)C1 [Clindamycin]
11: Number of strains with indicated MIC (Gardnerella vaginalis; MIC 0.03 μg/ml)
14 (42) μg/ml: Resistant (Prevotella timonensis; number (%) of isolates, # tested 33, resistance: rifaximin >32, metronidazole >32, clindamycin >8 μg/ml)
3: Number of strains with indicated MIC (Peptoniphilus lacrimalis; MIC >[…])
>128 µg/mL: Minimal Inhibitory Concentration (MIC) (Prevotella timonensis; isolate 301212 10) | Minimal Inhibitory Concentration (MIC) (Prevotella timonensis; isolate 601175 J) | Minimal Inhibitory Concentration (MIC) (Prevotella timonensis; isolate 601214 A) | Minimal Inhibitory Concentration (MIC) (Prevotella timonensis; isolate 601226 C) | Minimal Inhibitory Concentration (MIC) (Prevotella timonensis; isolate 601234 B) | Minimal Inhibitory Concentration (MIC) (Prevotella timonensis; isolate 601293 13) | Minimal Inhibitory Concentration (MIC) (Prevotella timonensis; isolate 601367 E) | Minimal Inhibitory Concentration (MIC) (Prevotella timonensis; isolate 601370 13) | Minimal Inhibitory Concentration (MIC) (Prevotella timonensis; isolate 601401 J) | Minimal Inhibitory Concentration (MIC) (Prevotella timonensis; isolate 601411 S) | Minimal Inhibitory Concentration (MIC) (Prevotella timonensis; isolate 601414 O) | Minimal Inhibitory Concentration (MIC) (Prevotella timonensis; isolate 601422 39) | Minimal Inhibitory Concentration (MIC) (Peptoniphilus harei; isolate 426868V D) | Minimal Inhibitory Concentration (MIC) (Peptoniphilus lacrimalis; isolate 601261V O) | Minimal Inhibitory Concentration (MIC) (Peptoniphilus lacrimalis; isolate 601296V N)
1: Number of strains with indicated MIC (Gardnerella vaginalis; MIC 0.015 μg/ml) | Number of strains with indicated MIC (Gardnerella vaginalis; MIC […] μg/ml) | Number of strains with indicated MIC (Atopobium vaginae; MIC 8 μg/ml) | Number of strains with indicated MIC (Atopobium vaginae; MIC 16 μg/ml) | Number of strains with indicated MIC (Atopobium vaginae; MIC >[…]) | Number of strains with indicated MIC (Atopobium vaginae; MIC […] μg/ml) | Number of strains with indicated MIC (Prevotella timonensis; MIC […]) | Number of strains with indicated MIC (Peptoniphilus lacrimalis; MIC 0.06 μg/ml) | Number of strains with indicated MIC (Peptoniphilus lacrimalis; MIC 8 μg/ml)
6 (30) μg/ml: Resistant (Peptoniphilus lacrimalis; number (%) of isolates, # tested 20, resistance: rifaximin >32, metronidazole >32, clindamycin >8 μg/ml)
17: Number of strains with indicated MIC (Prevotella timonensis; MIC 0.03 μg/ml)
2 (9) μg/ml: Resistant (Peptoniphilus harei; number (%) of isolates, # tested 23, resistance: rifaximin >32, metronidazole >32, clindamycin >8 μg/ml)
8 µg/mL: MIC (Peptoniphilus lacrimalis; Peptoniphilus lacrimalis, isolate 601318V E)
25: Number of strains with indicated MIC (Gardnerella vaginalis; MIC 0.06 μg/ml)
0.06 µg/mL: MIC50 (Atopobium vaginae; [2]) | MIC (Prevotella timonensis; Hoylesella timonensis, isolate 601167 13) | MIC (Prevotella timonensis; Hoylesella timonensis, isolate 601278 12) | MIC (Peptoniphilus lacrimalis; Peptoniphilus lacrimalis, isolate 601105V 13)
1 µg/mL: MIC (Peptoniphilus harei; Peptoniphilus harei, isolate 601098V Q) | MIC (Peptoniphilus harei; Peptoniphilus harei, isolate 601212V 15) | MIC (Peptoniphilus harei; Peptoniphilus harei, isolate 601259V 11) | MIC (Peptoniphilus harei; Peptoniphilus harei, isolate 601289V C) | MIC (Peptoniphilus harei; Peptoniphilus harei, isolate 601326V F) | MIC90 (Peptoniphilus harei; [4])
21 (91) μg/ml: Susceptible (Peptoniphilus harei; number (%) of isolates, # tested 23)
> 128 µg/mL: MIC (Atopobium vaginae; Fannyhessea vaginae, read-out: Minimal Inhibitory Concentration (MIC)) | MIC (Prevotella timonensis; Hoylesella timonensis) | MIC90 (Prevotella timonensis; [3]) | MIC (Peptoniphilus harei; Peptoniphilus harei) | MIC (Peptoniphilus lacrimalis; Peptoniphilus lacrimalis) | MIC90 (Peptoniphilus lacrimalis; [5])
38 (95) μg/ml: Susceptible (Mobiluncus all species; number (%) of isolates)
2: Number of strains with indicated MIC (Prevotella timonensis; MIC 0.06 μg/ml) | Number of strains with indicated MIC (Peptoniphilus harei; MIC >[…], 23 samples)
28: Number of strains with indicated MIC (Atopobium vaginae; MIC 0.03 μg/ml)
0.015 to 0.5 µg/mL: MIC Range (Gardnerella vaginalis; # tested 107)
128 µg/mL: MIC (Prevotella timonensis; Hoylesella timonensis, isolate 601429 11) | MIC (Peptoniphilus lacrimalis; Peptoniphilus lacrimalis, isolate 601028V 27A) | MIC (Peptoniphilus lacrimalis; Peptoniphilus lacrimalis, isolate 601139V 17)
14 (70) μg/ml: Susceptible (Peptoniphilus lacrimalis; number (%) of isolates, # tested 20)
19 (58) μg/ml: Susceptible (Prevotella timonensis; number (%) of isolates, # tested 33)
0.125 µg/mL: MIC50 (Gardnerella vaginalis; [1]) | MIC50 (Mobiluncus all species) | MIC (Peptoniphilus harei; Peptoniphilus harei, isolate 601311V R) | MIC (Peptoniphilus harei; Peptoniphilus harei, isolate 601342V F) | MIC (Peptoniphilus harei; Peptoniphilus harei, isolate 601365V 14) | MIC (Peptoniphilus harei; Peptoniphilus harei, isolate 601426V D) | MIC (Peptoniphilus harei; Peptoniphilus harei, isolate 601430V 22) | MIC (Peptoniphilus lacrimalis; Peptoniphilus lacrimalis, isolate 601060V 32A) | MIC (Peptoniphilus lacrimalis; Peptoniphilus lacrimalis, isolate 601078V O) | MIC (Peptoniphilus lacrimalis; Peptoniphilus lacrimalis, isolate 601084V c) | MIC (Peptoniphilus lacrimalis; Peptoniphilus lacrimalis, isolate 601365V 13)
0.25 µg/mL: MIC90 (Gardnerella vaginalis; [1]) | MIC90 (Atopobium vaginae; [2]) | MIC90 (Mobiluncus all species) | MIC (Peptoniphilus harei; Peptoniphilus harei, isolate 601203V 8) | MIC (Peptoniphilus harei; Peptoniphilus harei, isolate 601293V 21) | MIC (Peptoniphilus harei; Peptoniphilus harei, isolate 601355V D) | MIC (Peptoniphilus harei; Peptoniphilus harei, isolate 601399V 16) | MIC (Peptoniphilus harei; Peptoniphilus harei, isolate 601409V L) | MIC (Peptoniphilus harei; Peptoniphilus harei, isolate 601413V 16) | MIC (Peptoniphilus harei; Peptoniphilus harei, isolate 601539V 25B) | MIC (Peptoniphilus lacrimalis; Peptoniphilus lacrimalis, isolate 601255V 12) | MIC (Peptoniphilus lacrimalis; Peptoniphilus lacrimalis, isolate 601293V 15) | MIC (Peptoniphilus lacrimalis; Peptoniphilus lacrimalis, isolate 601305V K-1) | MIC (Peptoniphilus lacrimalis; Peptoniphilus lacrimalis, isolate 601330V H) | MIC (Peptoniphilus lacrimalis; Peptoniphilus lacrimalis, isolate 601336V 47) | MIC (Peptoniphilus lacrimalis; Peptoniphilus lacrimalis, isolate 601368V 39) | MIC (Peptoniphilus lacrimalis; Peptoniphilus lacrimalis, isolate 601375V E) | MIC (Peptoniphilus lacrimalis; Peptoniphilus lacrimalis, isolate 601388V B) | MIC (Peptoniphilus lacrimalis; Peptoniphilus lacrimalis, isolate 601401V I) | MIC50 (Peptoniphilus lacrimalis; [5])
10: Number of strains with indicated MIC (Atopobium vaginae; MIC 0.06 μg/ml)
2 (5) μg/ml: Resistant (Mobiluncus all species; number (%) of isolates, resistance: rifaximin >32, metronidazole >32, clindamycin >8 μg/ml)
13: Number of strains with indicated MIC (Prevotella timonensis; MIC >[…])
0.03 µg/mL: MIC (Prevotella timonensis; Hoylesella timonensis, isolate 601080 5) | MIC (Prevotella timonensis; Hoylesella timonensis, isolate 601088 15) | MIC (Prevotella timonensis; Hoylesella timonensis, isolate 601093 24) | MIC (Prevotella timonensis; Hoylesella timonensis, isolate 601097 S) | MIC (Prevotella timonensis; Hoylesella timonensis, isolate 601098 B) | MIC (Prevotella timonensis; Hoylesella timonensis, isolate 601170 13) | MIC (Prevotella timonensis; Hoylesella timonensis, isolate 601178 19) | MIC (Prevotella timonensis; Hoylesella timonensis, isolate 601194 9B) | MIC (Prevotella timonensis; Hoylesella timonensis, isolate 601245 16) | MIC (Prevotella timonensis; Hoylesella timonensis, isolate 601252 B) | MIC (Prevotella timonensis; Hoylesella timonensis, isolate 601255 17) | MIC (Prevotella timonensis; Hoylesella timonensis, isolate 601266 18) | MIC (Prevotella timonensis; Hoylesella timonensis, isolate 601281 22) | MIC (Prevotella timonensis; Hoylesella timonensis, isolate 601287 H) | MIC (Prevotella timonensis; Hoylesella timonensis, isolate 601311 B) | MIC (Prevotella timonensis; Hoylesella timonensis, isolate 601388 S) | MIC (Prevotella timonensis; Hoylesella timonensis, isolate 601459 21) | MIC50 (Prevotella timonensis; [3])
0.5 µg/mL: MIC (Peptoniphilus harei; Peptoniphilus harei, isolate 601248V 23) | MIC (Peptoniphilus harei; Peptoniphilus harei, isolate 601302V F1) | MIC (Peptoniphilus harei; Peptoniphilus harei, isolate 601374V F) | MIC (Peptoniphilus harei; Peptoniphilus harei, isolate 601388V Q) | MIC50 (Peptoniphilus harei; [4])
